Results from PMC11968843, “Sulphostin-inspired N-phosphonopiperidones as selective covalent DPP8 and DPP9 inhibitors” (Nature Communications, 2025).
Where “and” joins values, the source holds several entries; their conditions need not be identical. Identical values can stand only once. Entries after “also recorded” stand apart in the source; their conditions may differ. Like-named read-outs stand apart in the source and are kept apart here.

Key:
DPP8 [1] = target: T1, DPP8 (Homo sapiens, UniProt Q6V1X1); experiment: Time-dependent DPP8 inhibition kinetics (kobs, KI, kinact, kapp); assay type: biochemical
T1 construct: purchased Proteros Biostructures GmbH, Germany
Experimental: (§1) To calculate the reaction rate of covalent bond formation between DPP proteins and inhibitor, kinact, KI and kapp was determined as previously described[30],[51]. Therefore, 250 µM GP-AMC was added simultaneously with a serial dilution of the inhibitor to 10 nM enzyme. Enzyme activity was measured for a maximum of 120 min at 30 °C, and fluorescence intensities were then plotted against time. Data was fitted to the following equation: Y=(vi/kobs)*(1−exp(−kobs*X)) using Graph-Pad Prism v10.2.3. The obtained pseudo-first-order rate constant was used to determine the maximum enzyme inhibition rate (kinact) and binding affinity (KI) by fitting the plot of kobs against inhibitor concentration to the following equation: Y=kinact/1+(KI/[I]) . The efficiency of covalent bond formation (kapp) was calculated by the ratio of kinact/KI. All measurements were performed in triplicates and error bars represent standard errors of the fit.

DPP9 [2] = target: T2, DPP9 (Homo sapiens, UniProt Q86TI2); experiment: Time-dependent DPP9 inhibition kinetics (kobs, KI, kinact, kapp); assay type: biochemical; set-up: purchased Proteros Biostructures GmbH, Germany
Experimental: as §1
Target sequence in this assay (Q86TI2 whole entry): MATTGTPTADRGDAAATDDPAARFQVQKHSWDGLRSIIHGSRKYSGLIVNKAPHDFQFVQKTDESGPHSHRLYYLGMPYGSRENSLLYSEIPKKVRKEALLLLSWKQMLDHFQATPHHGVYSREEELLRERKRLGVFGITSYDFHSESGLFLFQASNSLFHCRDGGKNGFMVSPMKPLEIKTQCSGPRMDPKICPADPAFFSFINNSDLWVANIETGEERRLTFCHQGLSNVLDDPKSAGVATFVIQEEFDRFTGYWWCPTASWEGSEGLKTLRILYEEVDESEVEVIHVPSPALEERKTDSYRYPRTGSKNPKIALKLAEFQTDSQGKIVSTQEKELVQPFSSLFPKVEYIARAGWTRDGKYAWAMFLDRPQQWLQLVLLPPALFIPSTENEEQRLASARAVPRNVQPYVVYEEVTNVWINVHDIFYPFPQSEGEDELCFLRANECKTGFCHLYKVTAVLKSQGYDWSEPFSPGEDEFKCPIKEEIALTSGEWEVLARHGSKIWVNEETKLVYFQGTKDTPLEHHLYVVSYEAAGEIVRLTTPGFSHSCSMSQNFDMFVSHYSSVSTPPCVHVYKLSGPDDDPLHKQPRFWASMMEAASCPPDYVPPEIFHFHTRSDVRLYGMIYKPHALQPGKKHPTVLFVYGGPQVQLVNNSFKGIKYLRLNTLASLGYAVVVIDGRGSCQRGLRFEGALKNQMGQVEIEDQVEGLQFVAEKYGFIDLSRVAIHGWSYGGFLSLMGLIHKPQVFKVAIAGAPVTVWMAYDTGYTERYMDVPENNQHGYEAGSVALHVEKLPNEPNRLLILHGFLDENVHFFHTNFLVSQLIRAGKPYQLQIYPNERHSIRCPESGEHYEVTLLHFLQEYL

[3] = system: serine hydrolases (≡FP target proteins) in HEK293 cell lysates; experiment: Competitive ABPP with fluorophosphonate-alkyne (≡FP) in HEK293 cell lysates; assay type: binding, H. sapiens; conditions: 50 µM pre-incubation 2 h, 2 µM ≡FP
DPP9 [4] = target: T2, DPP9; experiment: biochemical; assay type: biochemical; set-up: purchased Proteros Biostructures GmbH, Germany
Experimental: (§2) Enzyme activity of DPP4, DPP8, DPP9 (Proteros Biostructures GmbH, Germany) and PREP (Sigma Aldrich, USA) was determined by measuring the initial velocity of AMC release from the fluorogenic substrate GP-AMC (Sigma Aldrich, USA) using a Tecan Spark® 10 M multimode microplate reader (Tecan Group Ltd., Switzerland) in activity buffer (20 mM HEPES/KOH pH 7.3, 110 mM potassium acetate, 2 mM Mg acetate, 0.5 mM EGTA, 0.02% Tween 20, supplemented with 1 mM DTT) and a final volume of 20 μL for maximal 60 min at 30 °C. Prior to activity measurement, 10 nM enzyme was incubated for 45 min at 30 °C and gentle shaking with the inhibitor compounds in concentrations ranging from 0 to 100 μM. The compounds were dissolved in DMSO and diluted in activity buffer (final DMSO concentration: 1%). […] IC50 values were calculated using Graph-Pad Prism v10.2.3 using the equation: [Inhibitor] vs. response—Variable slope (four parameters). All measurements were performed in triplicates and error bars represent standard errors of the fit.
Target sequence in this assay (Q86TI2 whole entry): as above

DPP8 [5] = target: T1, DPP8; experiment: biochemical; assay type: biochemical
Experimental: as §2

DPP9 [6] = target: T2, DPP9; experiment: Native MS of DPP9 dimer after incubation with inhibitor; conditions: 50 µM, 90 min
Target sequence in this assay (Q86TI2 20-863): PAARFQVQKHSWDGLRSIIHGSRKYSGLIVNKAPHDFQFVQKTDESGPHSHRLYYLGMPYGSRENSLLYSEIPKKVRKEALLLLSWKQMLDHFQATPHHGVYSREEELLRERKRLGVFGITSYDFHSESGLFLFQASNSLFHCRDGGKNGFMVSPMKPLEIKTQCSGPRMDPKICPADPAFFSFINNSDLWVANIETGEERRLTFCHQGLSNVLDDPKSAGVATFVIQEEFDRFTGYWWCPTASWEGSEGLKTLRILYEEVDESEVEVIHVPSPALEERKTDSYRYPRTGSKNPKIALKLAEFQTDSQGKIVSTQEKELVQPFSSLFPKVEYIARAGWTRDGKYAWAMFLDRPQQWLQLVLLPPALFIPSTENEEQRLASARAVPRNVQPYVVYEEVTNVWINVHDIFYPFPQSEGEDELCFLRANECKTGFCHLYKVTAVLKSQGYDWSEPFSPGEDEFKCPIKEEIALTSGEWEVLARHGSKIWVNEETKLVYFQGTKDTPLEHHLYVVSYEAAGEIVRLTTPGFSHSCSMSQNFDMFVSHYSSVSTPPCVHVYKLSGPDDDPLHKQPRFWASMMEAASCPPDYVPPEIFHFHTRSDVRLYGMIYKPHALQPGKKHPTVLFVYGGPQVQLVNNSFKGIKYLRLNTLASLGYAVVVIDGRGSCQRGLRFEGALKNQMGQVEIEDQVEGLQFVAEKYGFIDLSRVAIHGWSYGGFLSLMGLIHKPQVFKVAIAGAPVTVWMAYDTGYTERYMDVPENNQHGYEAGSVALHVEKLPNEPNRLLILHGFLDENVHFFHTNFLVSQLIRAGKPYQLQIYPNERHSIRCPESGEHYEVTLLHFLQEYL
Experimental: For this purpose, a rebuffering procedure using 10 kDa molecular weight cut-off spin-filter columns (Merck Millipore, USA) was applied for five cycles[58]. The resulting protein concentration was determined using microvolume spectroscopy (DS-11+, DeNovix, USA) and adjusted to 5 µM with 200 mM NH4OAc. […] A total number of 1000 MS spectra were recorded in positive EMR mode on an Exactive Plus EMR Orbitrap mass spectrometer (Thermo Fisher Scientific, USA) calibrated with CsI (2 mg mL^-1; Thermo Fisher Scientific, USA).
UniDec software (version 6.0.4) was used for mass deconvolution[59]. For this purpose, the default settings were used within an m/z range of 6500 to 9500, with the exception of a higher deconvolution resolution (sample mass every 1 Da), a narrower peak detection window (peak detection range of 80 Da) and a total peak normalization. GraphPad Prism v8.0.1 was used for data visualization.

[7] = target: T3, DPP9-BRCA2 interaction in HeLa wild-type cells (Homo sapiens, UniProt Q86TI2); experiment: Proximity ligation assay (PLA) of MMC-induced DPP9-BRCA2 interaction; assay type: cell-based; conditions: for 95% confidence interval of difference: compound vs. +Ctrl., Unpaired two-sided t-test
T3 construct: endogenous in cells; host or cells: HeLa wild-type (HeLa Flp-In T-REx WT)
Experimental: HeLa wild-type cells were cultured as described above. Cells were seeded on coverslips in 24‐well plates (Greiner, Germany) at a concentration of 2 × 10^4 cells per well (37 °C and 5% CO2). To induce a DPP9-BRCA2 interaction, 300 nM MMC was added to the cells 8 h after seeding and for a total incubation time of 24 h. Indicated Inhibitors (10 µM) were added 1 h prior to cell fixation. Cells were fixed with 4% formaldehyde in PBS for 10 min and permeabilized with 0.2% Triton‐X‐100 in PBS for 5 min. The proximity ligation assay (PLA) was performed using the Duolink in situ PLA Kit (Sigma Aldrich, USA). Briefly, cells were washed with PBS and blocked with Duolink Blocking solution for 60 min at 37 °C. […] Antibody control coverslips were treated with only one primary antibody to estimate background staining in each experiment. Coverslips were washed and treated with PLA reagents according to the manufacturers protocol. Cells were mounted in DAKO with DAPI fluorescent mounting medium and analyzed using an LSM 710 confocal microscope, 63x NA 1.4 oil immersion objective (Zeiss, Germany). Images were processed using Zen black v2.3 (Zeiss, Germany) and subsequently analyzed using the Duolink ImageTool Setup 1.0.1.2 (Sigma Aldrich, USA).

HeLa wild-type cells [8] = experiment: Cell viability assay (MTT), inhibitor alone; assay type: cell-based
Experimental: (§3) HeLa wild-type (HeLa Flp-In T-REx WT, kind gift from Prof. Matthias Hentze) and HeLa DPP9^KO cells (prepared in-house) were cultured in DMEM (ThermoFisher, USA) supplemented with 10% FBS (PAN Biotech, Germany), 2 mM L-Glutamin (ThermoFisher, USA) and 1% Penicillin/Streptomycin (100 U mL^−1 Penicillin and 100 µg mL^−1 Streptomycin, ThermoFisher, USA). Cells were seeded in 96-well flat-bottom cell culture plates (Greiner, Germany) at a concentration of 5 × 10^3 cells per well (37 °C and 5% CO2). The indicated concentration of Mitomycin C (MMC, Merck) was added to the cells 24 h after seeding, together with 10 µM of the indicated inhibitor. The inhibitors were refreshed every 24 h. Control cells were treated with DMSO.
(§4) Cell viability was measured 72 hours after the MMC treatment. For this, the medium was removed and replaced with phenol-red free DMEM (ThermoFisher, USA) containing 0.5 mg mL^−1 MTT (Sigma Aldrich, USA). Cells were incubated for 30 min at 37 °C, 5% CO2. Subsequently, the medium was removed and replaced by DMSO. The plates were shaken on an orbital shaker for 20 min before measuring the MTT signal on a CARIOstar Plus microplate reader (BMT labtech, Germany). Each experiment was performed three times, each in triplicates.

HeLa wild-type cells [9] = experiment: Cell viability assay (MTT), co-treatment with Mitomycin C; assay type: cell-based
Experimental: as §3, §4

T3 sequence (Q86TI2 whole entry): as the sequence (Q86TI2 whole entry) above
T1 sequence (Q6V1X1 whole entry): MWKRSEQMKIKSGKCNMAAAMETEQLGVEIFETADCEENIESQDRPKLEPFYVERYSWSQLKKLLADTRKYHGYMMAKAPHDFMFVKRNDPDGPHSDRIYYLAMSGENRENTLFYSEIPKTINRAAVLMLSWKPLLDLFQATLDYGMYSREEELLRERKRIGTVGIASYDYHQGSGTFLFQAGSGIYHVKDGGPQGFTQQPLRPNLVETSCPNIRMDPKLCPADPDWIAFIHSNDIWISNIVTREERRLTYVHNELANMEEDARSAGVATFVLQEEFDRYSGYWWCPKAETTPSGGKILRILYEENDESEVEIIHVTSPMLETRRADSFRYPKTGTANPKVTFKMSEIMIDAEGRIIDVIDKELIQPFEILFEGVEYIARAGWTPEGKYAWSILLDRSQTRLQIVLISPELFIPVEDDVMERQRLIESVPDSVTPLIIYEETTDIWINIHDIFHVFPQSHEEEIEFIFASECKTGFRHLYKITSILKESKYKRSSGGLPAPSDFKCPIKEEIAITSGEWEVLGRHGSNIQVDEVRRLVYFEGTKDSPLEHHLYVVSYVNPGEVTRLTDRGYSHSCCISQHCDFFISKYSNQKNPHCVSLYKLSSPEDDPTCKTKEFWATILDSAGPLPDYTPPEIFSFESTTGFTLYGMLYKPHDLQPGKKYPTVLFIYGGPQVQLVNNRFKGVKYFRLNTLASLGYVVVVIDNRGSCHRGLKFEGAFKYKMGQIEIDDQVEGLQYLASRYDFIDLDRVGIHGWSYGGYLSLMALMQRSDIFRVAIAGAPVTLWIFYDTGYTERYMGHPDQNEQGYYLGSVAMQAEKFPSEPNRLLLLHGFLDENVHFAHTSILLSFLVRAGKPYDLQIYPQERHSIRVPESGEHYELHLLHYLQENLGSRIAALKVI

N[C@H]1CCCN([P@@](N)(=O)NS(=O)(=O)O)C1=O [Sulphostin]
kobs DPP8 (DPP8 [1]; c 1.5625 µM): 3.383e-05 s⁻¹
kobs DPP8 (DPP8 [1]; c 6.25 µM): 4.011e-05 s⁻¹
kobs DPP8 (DPP8 [1]; c 25 µM): 0.0001308 s⁻¹
kobs DPP8 (DPP8 [1]; c 50 µM): 0.0001589 s⁻¹
kapp DPP8 (DPP8 [1]; ratio kinact/KI): 11 M⁻¹ s⁻¹
KI (inactivation) (DPP8 [1]; read-out: KI [M] best fit DPP8, source data): 2.11e-05 M
kobs DPP9 (DPP9 [2]; c 0.15625 µM): 6.239e-05 s⁻¹
kobs DPP9 (DPP9 [2]; c 5 µM): 0.0002112 s⁻¹
kapp DPP9 (DPP9 [2]; ratio kinact/KI): 317 M⁻¹ s⁻¹
KI (inactivation) (DPP9 [2]; read-out: KI [M] best fit DPP9, source data): 7.33e-07 M
competition of ≡FP labeling [3]: significantly competed only the labeling of DPP8/9
IC50 (DPP9 [4]): 1.39 ± 0.108 µM
remaining activity at 0.15625 µM (DPP9 [4]; read-out: DPP9 activity [%], c 156.25 nM): 93.2%
remaining activity at 0.3125 µM (DPP9 [4]; read-out: DPP9 activity [%], c 312.5 nM): 87.7%
remaining activity at 2.5 µM (DPP9 [4]; read-out: DPP9 activity [%], c 2500 nM): 28.5%
remaining activity at 5 µM (DPP9 [4]; read-out: DPP9 activity [%], c 5000 nM): 16.7%
remaining activity at 10 µM (DPP9 [4]; read-out: DPP9 activity [%], c 10000 nM): 10.8%
remaining activity at 25 µM (DPP9 [4]; read-out: DPP9 activity [%], c 25000 nM): 5%
remaining activity at 50 µM (DPP9 [4]; read-out: DPP9 activity [%], c 50000 nM): 3.52%
remaining activity at 100 µM (DPP9 [4]; read-out: DPP9 activity [%], c 100000 nM): 2.34%
IC50 (DPP8 [5]): 6.93 ± 0.62 µM
remaining activity at 1.5625 µM (DPP8 [5]; read-out: DPP8 activity [%], c 1562.5 nM): 93.5%
remaining activity at 3.125 µM (DPP8 [5]; read-out: DPP8 activity [%], c 3125 nM): 73.6%
remaining activity at 6.25 µM (DPP8 [5]; read-out: DPP8 activity [%], c 6250 nM): 47.7%
remaining activity at 25 µM (DPP8 [5]; read-out: DPP8 activity [%], c 25000 nM): 11.8%
remaining activity at 50 µM (DPP8 [5]; read-out: DPP8 activity [%], c 50000 nM): 5.62%
remaining activity at 100 µM (DPP8 [5]; read-out: DPP8 activity [%], c 100000 nM): 3.57%
Difference [Da] between doubly and singly modified DPP9 dimer (DPP9 [6]): 156 Da
Intensity [%] of DPP9 dimer with one modification (DPP9 [6]): 44.37%
Intensity [%] of DPP9 dimer with two modifications (DPP9 [6]): 32.64%
Intensity [%] of unmodified DPP9 dimer (DPP9 [6]): 22.99%
increase of DPP9 molecular weight, both active sites of the dimer modified (DPP9 [6]): 311 Da
increase of DPP9 molecular weight, first adduct (one active site of the dimer modified) (DPP9 [6]): 155 Da

N[C@@H](CC(=O)N1CCN(C(c2ccc(F)cc2)c2ccc(F)cc2)CC1)C(=O)N1Cc2ccccc2C1 [1G244, reference compound]
95% confidence interval of difference ([7]; Figure 5c): -77,49 to -58,50
95% confidence interval of difference ([7]; Figure S10a replicate 1): -64,34 to -33,22
95% confidence interval of difference ([7]; Figure S10a replicate 2): -102,2 to -69,11
95% confidence interval of difference ([7]; Figure S10a replicate 3): -86,10 to -55,17
effect on MMC-induced DPP9-BRCA2 PLA events ([7]; HeLa wild-type, 300 nM MMC 24 h, 10 µM inhibitor): fewer MMC-induced PLA events
Cell viability normalized to mock treated cells + 0 µM MMC (HeLa wild-type cells [8]; 0 µM MMC, individual replicate values (Supplementary Figure 11a)): 47.738% and 64.0147% and 69.6676% and 64.7998% and 59.8364% and 62.7117% and 63.5049% and 78.6659% and 67.3863%
95% confidence interval of difference (HeLa wild-type cells [8]; Figure 5d S11a, Ctrl. [-MMC] vs. compound [-MMC], Tukey's multiple comparisons test): 26,96 to 48,16
effect on cell viability without MMC (HeLa wild-type cells [8]; HeLa wild-type, 10 µM, 72 h): reduced cell viability
IC50 (DPP9 [4]; GP-AMC 250 µM, 10 nM enzyme, 45 min pre-incubation at 30 °C, read-out: IC50 DPP9): 0.014 ± 0.002 µM
DPP9 activity [%] (DPP9 [4]; c 1.6 nM): 98.3651% and 97.0319% and 99.1099%
DPP9 activity [%] (DPP9 [4]; c 3.1 nM): 86.8432% and 92.2931% and 89.5294%
DPP9 activity [%] (DPP9 [4]; c 6.3 nM): 74.2081% and 76.5022% and 75.3461%
DPP9 activity [%] (DPP9 [4]; c 25 nM): 35.0531% and 41.6358% and 39.7574%
DPP9 activity [%] (DPP9 [4]; c 50 nM): 22.1104% and 25.58% and 23.0144%
DPP9 activity [%] (DPP9 [4]; c 100 nM): 13.084% and 15.2109% and 15.2279%
IC50 (DPP8 [5]; GP-AMC 250 µM, 10 nM enzyme, 45 min pre-incubation at 30 °C, read-out: IC50 DPP8): 0.0044 ± 0.0015 µM
DPP8 activity [%] (DPP8 [5]; c 1.6 nM): 91.0893% and 98.7118% and 100.309%
DPP8 activity [%] (DPP8 [5]; c 3.1 nM): 71.9188% and 85.2033% and 73.5988%
DPP8 activity [%] (DPP8 [5]; c 6.3 nM): 45.4307% and 54.9695% and 54.3535%
DPP8 activity [%] (DPP8 [5]; c 25 nM): 12.8362% and 14.9584% and 14.076%
DPP8 activity [%] (DPP8 [5]; c 50 nM): 6.548% and 6.987% and 5.844%
DPP8 activity [%] (DPP8 [5]; c 100 nM): 2.369% and 3.267% and 3.933%
cell viability normalized for each condition seperately to corresponsing [-MMC +inhibitor] control (HeLa wild-type cells [9]; +MMC co-treatment, individual replicate values (Supplementary Figure 11b)): 65.3963% and 56.5004% and 50.0376% and 54.1195% and 51.2842% and 44.9012% and 47.541% and 41.8131% and 48.7041%
95% confidence interval of difference (HeLa wild-type cells [9]; Figure 5d S11a, + Ctrl. [+MMC] vs. compound [+MMC], Tukey's multiple comparisons test): 21,97 to 43,17
95% confidence interval of difference (HeLa wild-type cells [9]; Figure S11b, Ctrl. vs. compound, Uncorrected Fisher's LSD): 6,539 to 20,16
effect on cell viability / sensitivity to MMC (HeLa wild-type cells [9]; HeLa wild-type, 1 µM MMC + 10 µM inhibitor, 72 h): increases the sensitivity of; also recorded: significantly reduced cell viability
